# From patent US20260200920A1, “SUBSTITUTED AMINOPYRIDINE COMPOUNDS FOR USE AS AKT1 INHIBITORS” (Atavistik Bio, Inc., priority 2023, published 2026)
# Experiments:
# [1] = target: T1, human recombinant kinase full-length AKT1 E17K (Homo sapiens, UniProt P31749, E17K); assay: AKT1 E17K kinase assay (TR-FRET, Lance); assay type: biochemical; conditions: 0.6 nM AKT1 E17K, 50 nM Ulight-CREBtide, either 50 μM ATP or 2 mM ATP, 60 min at RT
# T1 construct: Purified human recombinant kinase full-length AKT1 E17K was expressed in insect cells; made in house; host or cells: insect cells
# Experimental: AKT1 E17K kinase assay: Inhibitory effects of compounds on AKT1 E17K were undertaken in a 10-pt dose response kinase activity assay measuring phospho-peptide product formation based on TR-FRET signal as described in the following paragraph.
# (§1) Purified human recombinant kinase full-length AKT1 E17K was expressed in insect cells and activated in vitro by PDPK1. Ulight™-CREBtide (PerkinElmer, catalog number TRF0107) was used as the peptide substrate. The reaction buffer consisted of 50 mM HEPES pH 7.5, 10 mM MgCl2, 0.01% Triton X-100, 0.01% BSA, 2 mM DTT, 0.6 nM AKT1 E17K, 50 nM Ulight™-CREBtide and either 50 μM ATP or 2 mM ATP. The compound solution was prepared as 10 mM DMSO stock. For the assay, a 1.3 serial dilution 10-pt dose response of test compounds, in duplicate, for each concentration were dispensed into a 384-well plate (Corning, catalog number 4513). Final DMSO concentration in the assay was 1%. The enzyme mixture (5 μL, 1.2 nM) were added and the mixture was incubated for 15 min at RT prior to the start of the kinase reaction by the addition of 5 μL substrate mixture (100 nM Ulight™-CREBtide). The reaction was stopped after 60 min of incubation at RT by the addition of 10 μL of Detection Mix (PerkinElmer, #CR97-100) consisting of Europium-anti-phospho-CREB (Ser133) (Perkin Elmer, catalog number TRF0200). Incubation with the detection mix for a further 60 min allowed binding of antibody to the phospho-Ulight™ CREBtide. The fluorescence emissions at 620 nm and 665 nm after excitation at 350 nm was measured using Envision reader. The ratio of the emissions at 665 nm and at 620 nm provided the measure for the amount of phosphorylated CREBtide product of AKT1 E17K kinase activity. To determine the IC50 values, the data was normalized (enzyme reaction without inhibitor=0% inhibition, all other assay components but no enzyme=100% inhibition) and IC50 values were calculated by a 4-parameter fit using an in-house developed protocol.
# Table 9 assigns each compound a code for potency in the AKT1 E 17K kinase assay: A, B, or C. According to the code, A represents an IC50 value <500 nM; B represents an IC50 value from ≥500 nM to <2000 nM; and C represents an IC50 value ≥2000 nM.
# [2] = target: T2, human recombinant kinase full-length wildtype AKT1 (Homo sapiens, UniProt P31749); assay: AKT1 kinase assay (wildtype, TR-FRET, Lance); assay type: biochemical; conditions: 0.6 nM wildtype AKT1, 50 nM Ulight-CREBtide, either 50 μM ATP or 2 mM ATP, 60 min at RT
# T2 construct: Purified human recombinant kinase full-length wildtype AKT1 was expressed in insect cells; made in house; host or cells: insect cells
# Experimental: AKT1 kinase assay: Inhibitory effects of compounds on wildtype AKT1 were undertaken in a 10-pt dose response kinase activity assay measuring phospho-peptide product formation based on TR-FRET signal as described in the following paragraph.
# as §1, with “full-length wildtype” for “full-length”, “AKT1” for “AKT1 E17K”, “AKT1,50” for “AKT1 E17K, 50”, “1:3” for “1.3”
# The symbol +++ represents an IC50 value <20 μM; the symbol ++ represents an IC50 value from ≥20 μM to 80 μM.
# T2 sequence (P31749 whole entry): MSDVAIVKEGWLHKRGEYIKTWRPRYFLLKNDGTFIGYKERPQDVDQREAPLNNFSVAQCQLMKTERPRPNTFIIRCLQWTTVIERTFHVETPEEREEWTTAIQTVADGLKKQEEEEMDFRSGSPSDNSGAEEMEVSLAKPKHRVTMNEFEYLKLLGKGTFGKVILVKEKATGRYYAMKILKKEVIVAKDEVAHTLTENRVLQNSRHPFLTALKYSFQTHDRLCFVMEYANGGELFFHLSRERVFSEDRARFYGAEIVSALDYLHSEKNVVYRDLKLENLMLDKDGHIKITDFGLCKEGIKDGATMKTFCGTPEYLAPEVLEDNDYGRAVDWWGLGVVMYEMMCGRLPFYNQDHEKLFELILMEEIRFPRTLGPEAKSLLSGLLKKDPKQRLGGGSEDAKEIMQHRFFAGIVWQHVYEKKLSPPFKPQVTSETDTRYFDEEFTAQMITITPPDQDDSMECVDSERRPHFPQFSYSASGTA
# T1 sequence (P31749 whole entry E17K): as the sequence (P31749 whole entry) above, with E17K counted along it
Compound,IC50 [1],IC50 [2]
"Nc1ncccc1-c1nc2ccc(-c3ccccc3)nc2n1-c1ccc(C(=O)N2CCC(C(=O)O)CC2)cc1 [Compound I-20, 1-(4-(2-(2-aminopyridin-3-yl)-5-phenyl-3H-imidazo[4,5-b]pyridin-3-yl)benzoyl)piperidine-4-carboxylic acid]",≥ 2000 nM,< 20 µM
"Nc1ncccc1-c1nc2ccc(-c3ccccc3)nc2n1-c1ccc(C(=O)N2CCCC(C(=O)O)C2)cc1 (stereo not drawn) [Compound I-21, 1-(4-(2-(2-aminopyridin-3-yl)-5-phenyl-3H-imidazo[4,5-b]pyridin-3-yl)benzoyl)piperidine-3-carboxylic acid]",≥ 2000 nM,< 20 µM
"Nc1ncccc1-c1nc2ccc(-c3ccccc3)nc2n1-c1ccc(C(=O)N2CCC(C(=O)O)CC2)nc1 [Compound I-22, 1-(5-(2-(2-aminopyridin-3-yl)-5-phenyl-3H-imidazo[4,5-b]pyridin-3-yl)picolinoyl)piperidine-4-carboxylic acid]",≥ 2000 nM,20 to 80 µM
"CC1(C(=O)O)CCN(C(=O)c2ccc(-n3c(-c4cccnc4N)nc4ccc(-c5ccccc5)nc43)cn2)CC1 [Compound I-23, 1-(5-(2-(2-aminopyridin-3-yl)-5-phenyl-3H-imidazo[4,5-b]pyridin-3-yl)picolinoyl)-4-methylpiperidine-4-carboxylic acid]",≥ 2000 nM,20 to 80 µM
"CC1(C)CN(C(=O)c2ccc(-n3c(-c4cccnc4N)nc4ccc(-c5ccccc5)nc43)cn2)CCC1C(=O)O (stereo not drawn) [Compound I-24, 1-(5-(2-(2-aminopyridin-3-yl)-5-phenyl-3H-imidazo[4,5-b]pyridin-3-yl)picolinoyl)-3,3-dimethylpiperidine-4-carboxylic acid]",≥ 2000 nM,< 20 µM
"Nc1ncccc1-c1nc2ccc(-c3ccccc3)nc2n1-c1ccc(N2CCC(C(=O)O)C2)nc1 (stereo not drawn) [Compound I-25, 1-(5-(2-(2-aminopyridin-3-yl)-5-phenyl-3H-imidazo[4,5-b]pyridin-3-yl)pyridin-2-yl)pyrrolidine-3-carboxylic acid]",500 to 2000 nM,< 20 µM
"CC(C(=O)O)C1CCN(c2ccc(-n3c(-c4cccnc4N)nc4ccc(-c5ccccc5)nc43)cn2)C1 (stereo not drawn) [Compound I-26, 2-(1-(5-(2-(2-aminopyridin-3-yl)-5-phenyl-3H-imidazo[4,5-b]pyridin-3-yl)pyridin-2-yl)pyrrolidin-3-yl)propanoic acid]",≥ 2000 nM,< 20 µM
"Nc1ncccc1-c1nc2ccc(-c3ccccc3)nc2n1-c1ccc(N2CCC(C(=O)O)CC2)nc1 [Compound I-27, 1-(5-(2-(2-aminopyridin-3-yl)-5-phenyl-3H-imidazo[4,5-b]pyridin-3-yl)pyridin-2-yl)piperidine-4-carboxylic acid]",500 to 2000 nM,< 20 µM
"Nc1ncccc1-c1nc2ccc(-c3ccccc3)nc2n1-c1ccc(N2CCCC(C(=O)O)C2)nc1 (stereo not drawn) [Compound I-28, 1-(5-(2-(2-aminopyridin-3-yl)-5-phenyl-3H-imidazo[4,5-b]pyridin-3-yl)pyridin-2-yl)piperidine-3-carboxylic acid]",≥ 2000 nM,< 20 µM
"Nc1ncccc1-c1nc2ccc(-c3ccccc3)nc2n1-c1ccc(CN2CCC(C(=O)O)CC2)cc1 [Compound I-29, 1-(4-(2-(2-aminopyridin-3-yl)-5-phenyl-3H-imidazo[4,5-b]pyridin-3-yl)benzyl)piperidine-4-carboxylic acid]",500 to 2000 nM,< 20 µM
"Nc1ncccc1-c1nc2ccc(-c3ccccc3)nc2n1-c1ccc(CN2CCC(C(=O)O)CC2)c(F)c1 [Compound I-30, 1-(4-(2-(2-aminopyridin-3-yl)-5-phenyl-3H-imidazo[4,5-b]pyridin-3-yl)-2-fluorobenzyl)piperidine-4-carboxylic acid]",≥ 2000 nM,< 20 µM

# Other lines, results leading:
IC50 [1],IC50 [2],Compound
500 to 2000 nM,< 20 µM,"Nc1ncccc1-c1nc2ccc(-c3ccccc3)nc2n1-c1ccc(CNC2CCC(C(=O)O)CC2)cc1 (stereo not drawn) [Compound I-31, 4-((4-(2-(2-aminopyridin-3-yl)-5-phenyl-3H-imidazo[4,5-b]pyridin-3-yl)benzyl)amino)cyclohexane-1-carboxylic acid]"
500 to 2000 nM,< 20 µM,"Nc1ncccc1-c1nc2ccc(-c3ccccc3)cc2n1-c1ccc(NC(=O)[C@H]2CC[C@H](C(=O)O)CC2)nc1 [Compound I-32, (1r,4r)-4-((5-(2-(2-aminopyridin-3-yl)-6-phenyl-1H-benzo[d]imidazol-1-yl)pyridin-2-yl)carbamoyl)cyclohexane-1-carboxylic acid]"
≥ 2000 nM,< 20 µM,"Nc1ncccc1-c1nc2ccc(N3CCOCC3)cc2n1-c1ccc(NC(=O)[C@H]2CC[C@H](C(=O)O)CC2)cc1 [Compound I-33, (1r,4r)-4-((4-(2-(2-aminopyridin-3-yl)-6-morpholino-1H-benzo[d]imidazol-1-yl)phenyl)carbamoyl)cyclohexane-1-carboxylic acid]"
≥ 2000 nM,< 20 µM,"Nc1ncccc1-c1nc2ccc(C3CCOCC3)cc2n1-c1ccc(NC(=O)[C@H]2CC[C@H](C(=O)O)CC2)cc1 [Compound I-34, (1r,4r)-4-((4-(2-(2-aminopyridin-3-yl)-6-(tetrahydro-2H-pyran-4-yl)-1H-benzo[d]imidazol-1-yl)phenyl)carbamoyl)cyclohexane-1-carboxylic acid]"
≥ 2000 nM,< 20 µM,"CC(C)(C)c1ccc2nc(-c3cccnc3N)n(-c3ccc(NC(=O)[C@H]4CC[C@H](C(=O)O)CC4)cc3)c2c1 [Compound I-35, (1r,4r)-4-((4-(2-(2-aminopyridin-3-yl)-6-(tert-butyl)-1H-benzo[d]imidazol-1-yl)phenyl)carbamoyl)cyclohexane-1-carboxylic acid]"
500 to 2000 nM,< 20 µM,"Nc1ncccc1-c1nc2ccc(-c3ccccc3)nc2n1-c1ccc(C2CN(C[C@H]3CC[C@@H](C(=O)O)CC3)C2)cc1 [Compound I-36, (1s,4s)-4-((3-(4-(2-(2-aminopyridin-3-yl)-5-phenyl-3H-imidazo[4,5-b]pyridin-3-yl)phenyl)azetidin-1-yl)methyl)cyclohexane-1-carboxylic acid]"
< 500 nM,< 20 µM,"Nc1ncccc1-c1nc2ccc(-c3ccccc3)nc2n1-c1ccc(C2CN(C(=O)C3CC(=O)CC(=O)C3)C2)cc1 [Compound I-37, 5-(3-(4-(2-(2-aminopyridin-3-yl)-5-phenyl-3H-imidazo[4,5-b]pyridin-3-yl)phenyl)azetidine-1-carbonyl)cyclohexane-1,3-dione]"
